Experimental data taken from the supplement of paper PMC10307832.

Experiments:
Assay in all cases: relative viability (nuclei count vs DMSO), 5 days (fraction); higher = more cells survive
[1] = compound: CC1(C)CNc2cc(NC(=O)c3cccnc3NCc3ccncc3)ccc21 [Motesanib] + COc1cccc2cc(-c3nc([C@H]4CC[C@H](C(=O)O)CC4)n4ncnc(N)c34)[nH]c12 [OSI-027] (partner 0.5 µM)
Outline: (§1)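 After 5 days of treatment, lung cancer cells in 1536-well plates were fixed and stained in a single step (final 0.05% Triton X-100, 1% formaldehyde, 1 ug/ml Hoechst) and their nuclei counted on 4× images. Treatment had been applied by pin tool the day after seeding as one drug alone or as a fixed anchor-drug dose with five library-drug doses (not always all listed) in √10 steps. Relative viability is the nuclei count of treated wells divided by that of vehicle wells, and values are medians of duplicate plates.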

[2] = compound: C[C@@]1(C(=O)Nc2ccc(F)nc2)CCCN1c1nc(Nc2cc(C3CC3)n[nH]2)c2cccn2n1 + CC1(C)CCC(c2ccc(Cl)cc2)=C(CN2CCN(c3ccc(C(=O)NS(=O)(=O)c4ccc(N[C@H](CCN5CCOCC5)CSc5ccccc5)c(S(=O)(=O)C(F)(F)F)c4)cc3)CC2)C1 [Navitoclax] (partner 0.5 µM)
Outline: as §1

[3] = compound: CC1(C)CNc2cc(NC(=O)c3cccnc3NCc3ccncc3)ccc21 [Motesanib] + O=C(CCCCCCC(=O)Nc1ccccc1)NO [Vorinostat] (partner 1 µM)
Outline: as §1

[4] = compound: C[C@@]1(C(=O)Nc2ccc(F)nc2)CCCN1c1nc(Nc2cc(C3CC3)n[nH]2)c2cccn2n1 + C[C@]1(O)C[C@@H](c2nc(-c3ccc4ccc(-c5ccccc5)nc4c3)c3c(N)nccn32)C1 [Linsitinib] (partner 1 µM)
Outline: as §1

Cell Line	relative viability ([1]; first compound 0.01 µM)	relative viability ([1]; first compound 0.03162 µM)	relative viability ([1]; first compound 0.1 µM)	relative viability ([1]; first compound 0.3162 µM)	relative viability ([1]; first compound 1 µM)	relative viability ([2]; first compound 0.04 µM)	relative viability ([2]; first compound 0.1265 µM)	relative viability ([2]; first compound 0.4 µM)	relative viability ([2]; first compound 1.265 µM)	relative viability ([3]; first compound 0.01 µM)	relative viability ([3]; first compound 0.03162 µM)	relative viability ([3]; first compound 0.1 µM)	relative viability ([3]; first compound 0.3162 µM)	relative viability ([3]; first compound 1 µM)	relative viability ([4]; first compound 0.04 µM)	relative viability ([4]; first compound 0.1265 µM)	relative viability ([4]; first compound 0.4 µM)	relative viability ([4]; first compound 1.265 µM)
NCI-H2126	0.815	0.737	0.674	0.774	0.781	0.669	0.725	0.591	0.761	0.858	0.774	0.643	0.926	0.813	0.736	0.685	0.712	0.771
NCI-H2228	0.572	0.455	0.489	0.689	0.572	0.561	0.762	0.723	0.633	0.667	0.539	0.737	0.528	0.612	0.679	0.616	0.69	0.769
NCI-H2347	0.411	0.364	0.357	0.51	0.493	0.777	0.544	0.661	0.846	0.538	0.555	0.527	0.704	0.621	0.988	0.736	0.915	0.893
NCI-H2405		0.59	0.683	0.663	0.719	0.813	0.635	0.584	0.597	0.941	0.989	0.96	1	0.994	1.04	0.91	0.779	0.766
NCI-H3122	0.836	0.962	0.933	1.08	1.23	1.05	1.06	1.06	1.02	0.962	1.05	1.08	1.12	1	1.04	1.1	1.01	1.06
PC-3 [JPC-3]	0.8	0.737	0.784	0.759	0.86	0.777	0.716	0.789	0.743	0.686	0.71	0.774	0.828	0.789	0.972	0.94	0.964	0.934
PC-14	0.868	1.01	0.704	0.844	0.849	0.99	0.69	0.959	0.941	0.702	0.867	0.778	0.806	0.771	1.09	0.814	0.825	1.01
RERF-LC-KJ	0.637	0.565	0.582	0.59	0.593	0.842	0.579	0.846	0.592	0.625	0.711	0.745	0.808	0.789	0.868	0.818	0.838	0.857
SK-LU-1	0.35	0.36	0.401	0.41	0.394	0.958	0.689	0.816	0.42	0.792	0.745	0.839	0.743	0.813	1.15	1.13	0.74	0.913
